The values below come from the Deep4Chem optical property database.

Where “and” joins values, the source holds several entries; their conditions need not be identical. Equal entries are not always repeated.

The nature of the data set: photoluminescence quantum yield (fraction); solvent given as SMILES.
Where [1] appears, read: in c1ccc2c(c1)c1ccccc1n2-c1ccc(-c2ccc(-n3c4ccccc4c4ccccc43)cc2)cc1.

As to `CCCCCCc1cc2/c(=C(\C#N)C(=O)OC)s/c(=c3/s/c(=C(/C#N)C(=O)OC)c4cc(CCCCCC)sc34)c2s1`, the photoluminescence quantum yield (in Cc1ccccc1) came out at 0.086.
Turning to `C(=C\c1ccncn1)/c1ccc(-c2ccco2)cc1`, the photoluminescence quantum yield (in ClCCl) was found to be 0.01.
Regarding `CC(=O)c1ccc(NC(=O)c2ccc(N(C)C)cc2)cc1`, the photoluminescence quantum yield is 0.0006 (in C1CCCCC1), 0.0158 (in C1CCOC1), 0.0017 (in CC#N) and 0.001 (in CCOCC).
In turn, `CC1(C)c2ccccc2N(c2ccccc2)c2ccc(-c3ccc(-c4ccc5c(c4)C(C)(C)c4ccccc4N5c4ccccc4)c4nsnc34)cc21` gave a photoluminescence quantum yield under setting [1] of 0.92.
In the case of `CCN(CC)c1ccc(C=Cc2nc3nc4ccccc4nc3s2)cc1`, the photoluminescence quantum yield (in CCO) was 0.36.
For `CN(C)c1ccc2nc(-c3ccc(C(=O)OC(C)(C)C)cc3)sc2c1`, the photoluminescence quantum yield is 0.84 (in C1CCCCC1); 0.81 (in CC#N); 0.84 (in CC(C)O); 0.72 (in CO); 0.91 (in CS(C)=O); 0.87 (in ClC(Cl)Cl). For the same compound, the photoluminescence quantum yield (in c1ccccc1) came to 0.85.
On to `CCC1=C(C)C2=Cc3c4ccccc4c4n3[B-](c3ccc5cc6ccccc6cc5c3)(Oc3ccccc3-4)[N+]2=C1C` (configuration not stated), for which the photoluminescence quantum yield was determined as 0.66 (in CC#N), 0.75 (in CCCCCC), 0.68 (in Cc1ccccc1) and 0.76 (in ClCCl).
Compound `c1ccc(N(c2ccccc2)c2ccc(-c3ccc4c(c3)C3(c5cc(-c6ccc(N(c7ccccc7)c7ccccc7)cc6)ccc5-4)c4ccccc4N(c4ccccc4)c4ccccc43)cc2)cc1` returned a photoluminescence quantum yield (in ClCCl) of 0.82 and a photoluminescence quantum yield (in c1cc(-n2c3ccccc3c3ccccc32)cc(-n2c3ccccc3c3ccccc32)c1) of 0.86.
Regarding `Cc1ccc(-n2c(-c3ccc(N(c4ccc(-c5ccc(N(c6ccc(-c7nc8c9ccccc9c9ccccc9c8n7-c7ccc(C)cc7)cc6)c6ccc(-c7nc8c9ccccc9c9ccccc9c8n7-c7ccc(C)cc7)cc6)cc5)cc4)c4ccc(-c5nc6c7ccccc7c7ccccc7c6n5-c5ccc(C)cc5)cc4)cc3)nc3c4ccccc4c4ccccc4c32)cc1`, under “in ClCCl”, the photoluminescence quantum yield was found to be 0.282.
The compound `CC1=C(C)c2cccc3c2c(cc2nc4ccccc4nc23)O1` came in with a photoluminescence quantum yield (in ClCCl) of 0.41.
With `COc1ccc(C2=c3sc(-c4ccc(OC)cc4)cc3=[N+]3C2=Nc2c(-c4ccc(OC)cc4)c4sc(-c5ccc(OC)cc5)cc4n2[B-]3(F)F)cc1`, the photoluminescence quantum yield (in ClC(Cl)Cl) was 0.1.
Turning to `COc1ccc(-c2nc3ccccc3oc2=O)cc1`, for the setting “in c1ccccc1”, the photoluminescence quantum yield stood at 0.076.
Turning to `Cc1cc(C)c(B(c2c(C)cc(C)cc2C)c2cc3ccc4ccccc4c3c3c2ccc2ccccc23)c(C)c1`, the photoluminescence quantum yield is, setting by setting: (in C1CCCCC1) 0.65; (in C1CCOC1) 0.73; (in CC#N) 0.58; (in ClC(Cl)Cl) 0.8; (in c1ccccc1) 0.89.
Turning to `COC(=O)c1cc(=O)n(C)c2cc(-c3ccc(Oc4ccccc4)cc3)sc12`, the photoluminescence quantum yield reads like this: (in CC#N) 0.63; (in ClCCl) 0.83.
Take `Brc1ccc(-c2nc(-c3ccc(C#Cc4ccc(-n5c6ccccc6c6ccccc65)cc4)cc3)nc(-c3ccc(C#Cc4ccc(-n5c6ccccc6c6ccccc65)cc4)cc3)n2)cc1`: the photoluminescence quantum yield reads like this: (in C1CCOC1) 0.68; (in CC#N) 0.02; (in CCCCCC) 0.9; (in Cc1ccccc1) 0.96; (in ClCCl) 0.65.
The compound `CC[N+]1=C(/C=C/C=C/C=C/C=C2/N(CCCCCC(=O)O)c3ccc(S(=O)(=O)[O-])cc3C2(C)C)C(C)(C)c2cc(S(=O)(=O)[O-])ccc21` showed a photoluminescence quantum yield (in CO) of 0.52 and a photoluminescence quantum yield (in O) of 0.28.
With `O=P1(c2ccccc2)C2=C(c3ccccc31)[Si](c1ccccc1)(c1ccccc1)c1cc(N(c3ccccc3)c3ccccc3)ccc12` (configuration not stated), the photoluminescence quantum yield came out at 0.52 (in CC#N), 0.17 (in CO) and 0.86 (in Cc1ccccc1).
Turning to `CCOC(=O)c1ccccc1-c1c2ccc(=[N+](CC)CC)cc-2oc2c1oc1cc(N)ccc12`, the photoluminescence quantum yield (in CCO) was 0.501, the photoluminescence quantum yield (in ClCCl) was 0.732 and the photoluminescence quantum yield (in O) stood at 0.088.
Take `Cc1cc(C)c(C2=C3C=c4c(c5ccccc5c5ccccc45)=[N+]3[B-](F)(F)n3c2cc2c4ccccc4c4ccccc4c23)c(C)c1`: the photoluminescence quantum yield runs as follows: (in C1CCCCC1) 0.64; (in C1CCOC1) 0.55; (in CC#N) 0.55; (in Cc1ccccc1) 0.51; (in ClCCl) 0.51 and 0.55.
For `Oc1ccc(-c2cccs2)cc1-c1nc2ccccc2s1`, the photoluminescence quantum yield was 0.0473 (in CCO) and 0.0242 (in ClCCl).
Turning to `Cc1cccc(C2=Cc3c4ccccc4cc[n+]3[B-](F)(F)O2)c1`, the photoluminescence quantum yield (in ClC(Cl)Cl) was 0.06.
Take `CC1(C)C(/C=C/C=C/c2cc3ccc(O)cc3oc2=O)=[N+](CCCS(=O)(=O)[O-])c2ccc(S(=O)(=O)O)cc21`: the photoluminescence quantum yield by setting is: (in CCO) 0.01; (in CS(C)=O) 0.017; (in O) 0.011.
As to `CCn1c2ccccc2c2cc(C#Cc3cc(C#Cc4ccc5c(c4)c4ccccc4n5CC)nc(S(C)(=O)=O)n3)ccc21`, the photoluminescence quantum yield is 0.74 (in C1CCOC1); 0.75 (in CCOC(C)=O); 0.59 (in CN(C)C=O); 0.81 (in Cc1ccccc1); 0.46 (in ClCCl).
In turn, `CN(C)c1ccc(C(=O)Nc2ccc(Cl)cc2)cc1` displayed a photoluminescence quantum yield (in C1CCCCC1) of 0.0011, a photoluminescence quantum yield (in C1CCOC1) of 0.0101, a photoluminescence quantum yield (in CC#N) of 0.0171 and a photoluminescence quantum yield (in CCOCC) of 0.005.
In the case of `CC1=[N+]2C(=C(c3ccc(N(c4ccccc4)c4ccccc4)cc3)c3ccc(C)n3[B-]2(F)F)C=C1c1cc2n(c1)[B-](F)(F)[N+]1=CC=CC1=C2c1c(C)cc(C)cc1C`, the photoluminescence quantum yield reads like this: (in C1CCCCC1) 0.37; (in CCOC(C)=O) 0.1.
`CC[n+]1nc2cc3c4c(c2c2cc(C)ccc21)CCCN4CCC3` returned a photoluminescence quantum yield (in O) of 0.27.
On to `O=P1(c2ccccc2)c2cccc3ccc4ccc1n4c23` (configuration not stated), for which the photoluminescence quantum yield (in ClCCl) was found to be 0.36.
For the compound `O=[N+]([O-])c1ccc([N+]2=Cc3ccc4c5c(ccc4c3O[B-]2(c2ccccc2)c2ccccc2)C=[N+](c2ccc([N+](=O)[O-])cc2)[B-](c2ccccc2)(c2ccccc2)O5)cc1`, the photoluminescence quantum yield runs as follows: (in Cc1ccccc1) 0.63; (in ClCCl) 0.48.
`N#Cc1ccc(N)cc1` had a photoluminescence quantum yield (in C1CCCCC1) of 0.13; a photoluminescence quantum yield (in CC#N) of 0.12; a photoluminescence quantum yield (in CCCCCC) of 0.09; a photoluminescence quantum yield (in CCO) of 0.041; a photoluminescence quantum yield (in O) of 0.0046; a photoluminescence quantum yield (in OCC(F)(F)F) of 0.0052.
With `CCCCCCCCOc1ccc2c3cccc4c(OCCCCCCCC)ccc(c5cccc1c52)c43`, the photoluminescence quantum yield runs as follows: (in C1CCOC1) 0.94; (in Cc1ccccc1) 0.9; (in ClC(Cl)(Cl)Cl) 0.08; (in ClC(Cl)Cl) 0.69; (in ClCCl) 0.81; (in c1ccncc1) 0.9.
As for `Fc1ccc(-[c+]2c3ccccc3sc3ccccc32)cc1`, under “in CC#N”, the photoluminescence quantum yield turned out to be 0.018.
In turn, `O=C1c2ccc(N(c3ccc(-c4ccccc4)cc3)c3ccc(-c4ccccc4)cc3)cc2C(=O)c2ccc(N(c3ccc(-c4ccccc4)cc3)c3ccc(-c4ccccc4)cc3)cc21` yielded a photoluminescence quantum yield (in Cc1ccccc1) of 0.1 and a photoluminescence quantum yield under setting [1] of 0.42.
With `CC/[NH+]=c1\cc2oc3cc(NCCN)c4ccccc4c3nc-2cc1C`, the photoluminescence quantum yield runs as follows: (in CCO) 0.27; (in O) 0.18.
Compound `COc1cc(OC)cc(C(=O)OCc2c(C)c(=O)n3c(=O)c(C)c(C)n23)c1` had a photoluminescence quantum yield (in CCO) of 0.638.
`CCc1cc(CC)cc(-n2c3ccccc3c3cc4c(cc32)c2ccccc2n4-c2cc(CC)cc(CC)c2)c1` yielded a photoluminescence quantum yield (in ClC(Cl)Cl) of 0.14.
As to `CC1(C)Cc2c(c3ccccc3c3nc4c(nc23)c2c(c3ccccc34)OC(C)(C)C2)O1`, the photoluminescence quantum yield is, setting by setting: (in C1CCCCC1) 0.43; (in C1COCCO1) 0.53; (in CC#N) 0.39; (in CC(C)O) 0.57; (in CCCCCC) 0.4; (in ClC(Cl)Cl) 0.43. The compound also yielded a photoluminescence quantum yield (in c1ccccc1) of 0.39.
Consider `CN(c1ccccc1)c1ccc(N(c2ccccc2)c2ccc3ccc4c(N(c5ccccc5)c5ccc(N(C)c6ccccc6)cc5)ccc5ccc2c3c54)cc1`, for which the photoluminescence quantum yield (in ClCCl) was 0.01.
On to `CC1(C)c2cc(/C=C/c3nc(/C=C/c4ccc5c(c4)C(C)(C)c4cc(N(c6ccccc6)c6ccc7ccccc7c6)ccc4-5)nc(/C=C/c4ccc5c(c4)C(C)(C)c4cc(N(c6ccccc6)c6ccc7ccccc7c6)ccc4-5)n3)ccc2-c2ccc(N(c3ccccc3)c3ccc4ccccc4c3)cc21`, for which the photoluminescence quantum yield (in Cc1ccccc1) is 0.25.
For the setting “in C1CCOC1”, `C(=C1c2ccccc2CCc2ccccc21)c1ccc(-c2cc(-c3ccc(C=C4c5ccccc5CCc5ccccc54)cc3)cc(-c3ccc(C=C4c5ccccc5CCc5ccccc54)cc3)c2)cc1` showed a photoluminescence quantum yield of 0.0045.
`COc1ccc(-n2nc(C#N)c(NC3CCCCC3)n2)cc1` showed a photoluminescence quantum yield (in CC#N) of 0.956.
In turn, `CCn1c2ccccc2c2c(C#N)c3c(ccc4c3cnn4C)nc21` registered a photoluminescence quantum yield (in CCOC(C)=O) of 0.45.
In turn, `COc1ccc(-c2cnc(C#Cc3ccccc3)o2)cc1OC` returned a photoluminescence quantum yield (in ClCCl) of 0.49.
Consider `CCOC(=O)c1ccccc1-c1c2ccc(=O)cc-2oc2cc(OC(=O)[C@H](CSCc3ccc(C)cc3)NC(=O)OC(C)(C)C)ccc12`, for which the photoluminescence quantum yield came to 0.006 (in C1CCOC1), 0.004 (in CC#N), 0.043 (in CCO) and 0.025 (in CS(C)=O).
